Values quoted from earlier work in patent US20140323444A1, “ANTI-INFLAMMATORY AND ANTIDIABETIC AGENTS” (priority 2013, published 2014).

Assays:
prostaglandin synthesis = details: in vivo; compared with aspirin and indomethacin
[1] = compared with placebo; in contrast to aspirin
platelet aggregation = details: unlike aspirin
[2] = test system: patients with type 2 diabetes

For `O=C(Oc1ccccc1C(=O)O)c1ccccc1O` [salsalate, 2-(2-hydroxybenzoyl)oxybenzoic acid], the anti-inflammatory activity (prostaglandin synthesis) is given as “equivalent to aspirin and indomethacin”, the “fecal gastrointestinal blood loss” value [1] is given as “no greater fecal gastrointestinal blood loss than placebo” and the “inhibition of platelet aggregation” value (platelet aggregation) is given as “does not inhibit platelet aggregation”. The adiponectin concentrations ([2]; in vivo) was “increase adiponectin concentrations”, the circulating insulin ([2]; in vivo) was “increase circulating insulin” and the glucose utilization ([2]; in vivo) was “improve glucose utilization”. The C-reactive protein ([2]; patients with type 2 diabetes) was “lowers”, the HbA1c levels ([2]; patients with type 2 diabetes) was “lowers” and the blood glucose ([2]; patients with type 2 diabetes) was “lowers”. The free fatty acid ([2]; patients with type 2 diabetes) was “lowers” and the triglycerides ([2]; patients with type 2 diabetes) was “lowers”.
